According to patent US8691811B2, “Quinazolinone linked pyrrolo[2,1-c][1,4]benzodiazepine hybrids as potential anticancer agents and process for the preparation thereof” (Council of Scientific & Industrial Research, priority 2008, dated 2014):

Experiments:
Assay type in all cases: cell-based, human
HCT-116 = assay: NCI cytotoxicity (SRB, 48 h), HCT-116; conditions: HCT-116, colon
Procedure: (§1) The C8-linked quinazolinone-PBD hybrid (5d) has been tested against sixty human tumour cell lines derived from nine cancer types (leukemia, non-small cell lung cancer, colon cancer, CNS cancer, melanoma, ovarian cancer, renal cancer, prostate cancer and breast cancer) as per NCI protocol. For each compound, dose response curves for individual cell lines have been measured at a minimum of five concentrations at 10 fold dilutions. A protocol of 48 h continuous drug exposure has been used, and a sulforhodamine B (SRB) protein assay was used to estimate cell viability or growth. The concentration for 50% cell growth inhibition (GI50), total cell growth inhibition (TGI, 0% growth) and 50% cell death (LC50, […]) compared with the control has been calculated (Table-1). Compound 5d has been evaluated for their in vitro cytotoxicity in sixty cell lines from nine human cancer types of lung (Hop-62, NCI-H226, NCI-H522), leukemia (K-562, SR), colon (HCT-116, HCT-15, HCC-2998), CNS(SF-539), melanoma (SK-MEL-5, UACC-62, M14), ovarian (IGROV1), renal (A498), prostate (PC3) breast (BT-549, MDA-MB-435, HS578T) origin. The results are expressed as percent of cell growth determined relative to that of untreated control cells (Table 2). The representative compound 5d has shown significant cytotoxicity against some cancer cell lines.

Melanoma cell lines = assay: NCI cytotoxicity (SRB, 48 h), melanoma panel; conditions: Melanoma panel average
Procedure: as §1

UO-31 = assay: NCI cytotoxicity (SRB, 48 h), UO-31; conditions: UO-31, renal
Procedure: as §1

BT-549 = assay: NCI cytotoxicity (SRB, 48 h), BT-549; conditions: BT-549, breast
Procedure: as §1

MALME-3M = assay: NCI cytotoxicity (SRB, 48 h), MALME-3M; conditions: melanoma
Procedure: as §1

Renal cancer cell lines = assay: NCI cytotoxicity (SRB, 48 h), renal panel; conditions: Renal panel average
Procedure: as §1

[1] = test system: Ovarian cancer cell lines; assay: NCI cytotoxicity (SRB, 48 h), ovarian panel; conditions: Ovarian panel average
Procedure: as §1

ACHN = assay: NCI cytotoxicity (SRB, 48 h), ACHN; conditions: renal
Procedure: as §1

NCI/ADR-RES = assay: NCI cytotoxicity (SRB, 48 h), NCI/ADR-RES; conditions: breast
Procedure: as §1

EKVX = assay: NCI cytotoxicity (SRB, 48 h), EKVX; conditions: non-small cell lung
Procedure: as §1

Breast cancer cell lines = assay: NCI cytotoxicity (SRB, 48 h), breast panel; conditions: Breast panel average
Procedure: as §1

PC-3 = assay: NCI cytotoxicity (SRB, 48 h), PC-3; conditions: PC-3, prostate
Procedure: as §1

SF-539 = assay: NCI cytotoxicity (SRB, 48 h), SF-539; conditions: SF-539, CNS
Procedure: as §1

SK-OV-3 = assay: NCI cytotoxicity (SRB, 48 h), SK-OV-3; conditions: SK-OV-3, ovarian
Procedure: as §1

786-0 = assay: NCI cytotoxicity (SRB, 48 h), 786-0; conditions: 786-0, renal
Procedure: as §1

CCRF-CEM = assay: NCI cytotoxicity (SRB, 48 h), CCRF-CEM; conditions: leukemia
Procedure: as §1

SK-MEL-28 = assay: NCI cytotoxicity (SRB, 48 h), SK-MEL-28; conditions: SK-MEL-28, melanoma
Procedure: as §1

HL-60(TB) = assay: NCI cytotoxicity (SRB, 48 h), HL-60(TB); conditions: leukemia
Procedure: as §1

[2] = test system: Prostate cancer cell lines; assay: NCI cytotoxicity (SRB, 48 h), prostate panel; conditions: Prostate panel average
Procedure: as §1

SK-MEL-2 = assay: NCI cytotoxicity (SRB, 48 h), SK-MEL-2; conditions: SK-MEL-2, melanoma
Procedure: as §1

HT29 = assay: NCI cytotoxicity (SRB, 48 h), HT29; conditions: HT29, colon
Procedure: as §1

NCI-H322M = assay: NCI cytotoxicity (SRB, 48 h), NCI-H322M; conditions: non-small cell lung
Procedure: as §1

NCI-H23 = assay: NCI cytotoxicity (SRB, 48 h), NCI-H23; conditions: NCI-H23, non-small cell lung
Procedure: as §1

SNB-75 = assay: NCI cytotoxicity (SRB, 48 h), SNB-75; conditions: SNB-75, CNS
Procedure: as §1

Colon cancer cell lines = assay: NCI cytotoxicity (SRB, 48 h), colon panel; conditions: Colon panel average
Procedure: as §1

SNB-19 = assay: NCI cytotoxicity (SRB, 48 h), SNB-19; conditions: SNB-19, CNS
Procedure: as §1

UACC-257 = assay: NCI cytotoxicity (SRB, 48 h), UACC-257; conditions: UACC-257, melanoma
Procedure: as §1

CAKI-1 = assay: NCI cytotoxicity (SRB, 48 h), CAKI-1; conditions: CAKI-1, renal
Procedure: as §1

OVCAR-3 = assay: NCI cytotoxicity (SRB, 48 h), OVCAR-3; conditions: OVCAR-3, ovarian
Procedure: as §1

HCC-2998 = assay: NCI cytotoxicity (SRB, 48 h), HCC-2998; conditions: HCC-2998, colon
Procedure: as §1

K-562 = assay: NCI cytotoxicity (SRB, 48 h), K-562; conditions: K-562, leukemia
Procedure: as §1

CNS cancer cell lines = assay: NCI cytotoxicity (SRB, 48 h), CNS panel; conditions: CNS panel average
Procedure: as §1

NCI-H522 = assay: NCI cytotoxicity (SRB, 48 h), NCI-H522; conditions: NCI-H522, non-small cell lung
Procedure: as §1

TK-10 = assay: NCI cytotoxicity (SRB, 48 h), TK-10; conditions: TK-10, renal
Procedure: as §1

OVCAR-8 = assay: NCI cytotoxicity (SRB, 48 h), OVCAR-8; conditions: OVCAR-8, ovarian
Procedure: as §1

RPMI-8226 = assay: NCI cytotoxicity (SRB, 48 h), RPMI-8226; conditions: RPMI-8226, leukemia
Procedure: as §1

SF-268 = assay: NCI cytotoxicity (SRB, 48 h), SF-268; conditions: SF-268, CNS
Procedure: as §1

SN12C = assay: NCI cytotoxicity (SRB, 48 h), SN12C; conditions: renal
Procedure: as §1

For `COc1cc2c(cc1OCCCCCOc1ccc(-n3c(C)nc4ccccc4c3=O)cc1)N=C[C@@H]1CCCN1C2=O` [5d, 7-methoxy-8-{5-[4-(2-methyl-4-oxo-3,4-dihydro-3-quinazolinyl)phenoxy]pentyloxy-}-(11aS)-1,2,3,11a-tetrahydro-5H-pyrrolo[2,1-c][1,4]benzodiazepine-5-one], the GI50 (HCT-116) was 0.15 µM, the “Log10 GI50” value (Melanoma cell lines) was −6.65 mol/L and the “Log10 LC50” value (Melanoma cell lines) was −5.90. For the same molecule, the GI50 (UO-31) was 0.36 µM, the GI50 (BT-549) was 0.11 µM and the GI50 (MALME-3M) was 0.23 µM. The “Log10 GI50” value (Renal cancer cell lines) was −6.62 mol/L, the “Log10 LC50” value (Renal cancer cell lines) was −5.09 and the “Log10 GI50” value [1] was −6.52 mol/L. For the same molecule, the “Log10 LC50” value [1] was −4.79, the GI50 (ACHN) was 0.29 µM and the GI50 (NCI/ADR-RES) was 1.73 µM. For the same molecule, the GI50 (EKVX) was 0.87 µM, the “Log10 GI50” value (Breast cancer cell lines) was −6.66 mol/L and the “Log10 LC50” value (Breast cancer cell lines) was −4.90. It also gave a GI50 (PC-3) of 0.29 µM, a GI50 (SF-539) of 0.22 µM and a GI50 (SK-OV-3) of 0.43 µM. The GI50 (786-0) was 0.17 µM, the GI50 (CCRF-CEM) was 0.16 µM and the GI50 (SK-MEL-28) was 0.2 µM. For the same molecule, the GI50 (HL-60(TB)) was 0.18 µM, the “Log10 GI50” value [2] was −6.55 mol/L and the “Log10 LC50” value [2] was −5.19. The GI50 (SK-MEL-2) was 0.42 µM, the GI50 (HT29) was 0.26 µM and the GI50 (NCI-H322M) was 0.26 µM. The GI50 (NCI-H23) was 0.23 µM, the GI50 (SNB-75) was 0.38 µM and the “Log10 GI50” value (Colon cancer cell lines) was −6.59 mol/L. The “Log10 LC50” value (Colon cancer cell lines) was −5.49, the GI50 (SNB-19) was 0.28 µM and the GI50 (UACC-257) was 0.39 µM. The GI50 (CAKI-1) was 0.19 µM, the GI50 (OVCAR-3) was 0.2 µM and the GI50 (HCC-2998) was 0.26 µM. For the same molecule, the GI50 (K-562) was 0.06 µM, the “Log10 GI50” value (CNS cancer cell lines) was −6.59 mol/L and the “Log10 LC50” value (CNS cancer cell lines) was −4.88. It also gave a GI50 (NCI-H522) of 0.12 µM, a GI50 (TK-10) of 0.31 µM and a GI50 (OVCAR-8) of 0.34 µM. It also gave a GI50 (RPMI-8226) of 0.19 µM, a GI50 (SF-268) of 0.26 µM and a GI50 (SN12C) of 0.24 µM.
